Test results taken from patent publication US20240409505A1, “GLUCONAMIDE SULFATE SURFACTANTS” (The Procter & Gamble Company, priority 2023, published 2024).
Counter-ions that a name gives are not always drawn.

Assay: Final product mixed with Deionized Water at room temperature
Type: physicochemical
Details: 0.0130 g of final product mixed with 1.287 g of Deionized Water at room temperature
Description: Vacuum filtered solution through Grade 4 filter paper to obtain a clear, colorless solution. […] The solution was concentrated using a rotary evaporator until mixture began to foam, then solution was transferred to a glass crystallizing dish and placed in a vacuum oven at room temperature under a partial vacuum of 3 inches of Hg internal oven pressure.
With `CCCCCCCCCCCCCCCCNC(=O)[C@H](O)[C@@H](O)[C@H](O)[C@H](O)COS(=O)(=O)O` [Example 3, Sodium (2R,3R,4S,5R)-6-(hexadecylamino)-2,3,4,5-tetrahydroxy-6-oxohexyl sulfate] the “appearance of mixture with Deionized Water (solubility)” value (shortened to “appearance of mixture”) was “completely clear, colorless solution that foamed when shaken”. For `CCCCCCCCCCCCCCNC(=O)[C@H](O)[C@@H](O)[C@H](O)[C@H](O)COS(=O)(=O)O` [Example 2, Sodium (2R,3R,4S,5R)-6-(tetradecylamino)-2,3,4,5-tetrahydroxy-6-oxohexyl sulfate], the “appearance of mixture” value was “completely clear, colorless solution that foamed when shaken”. For `CCCCCCCC/C=C\CCCCCCCCNC(=O)[C@H](O)[C@@H](O)[C@H](O)[C@H](O)COS(=O)(=O)O` [Example 4, Sodium (2R,3R,4S,5R)-2,3,4,5-tetrahydroxy-6-(((Z)-octadec-9-en-1-yl)amino)-6-oxohexyl sulfate], the “appearance of mixture” value was “completely clear, colorless solution that foamed when shaken”. With `CCCCCCCCCCCCNC(=O)[C@H](O)[C@@H](O)[C@H](O)[C@H](O)COS(=O)(=O)O` [Example 1, Sodium (2R,3R,4S,5R)-6-(dodecylamino)-2,3,4,5-tetrahydroxy-6-oxohexyl sulfate] the “appearance of mixture” value was “completely clear, colorless solution that foamed when shaken”. With “Sodium (2R,3R,4S,5R)-6-((2-1H-indol-2-yl)ethyl) amino)-2,3,4,5-tetrahydroxy-6-Oxohexyl Sulfate [Example 8]” the “appearance of mixture” value was “completely clear, colorless solution that foamed when shaken”. In the case of `O=C(NCc1ccccc1)[C@H](O)[C@@H](O)[C@H](O)[C@H](O)COS(=O)(=O)O` [Example 7, Sodium (2R,3R,4S,5R)-6-(benzylamino)-2,3,4,5-tetrahydroxy-6-oxohexyl Sulfate], the “appearance of mixture” value is reported as “completely clear, colorless solution that foamed when shaken”.
